Data reported in publication PMC5125615 (Biochemistry, 2015).
Substitutions are numbered along the chain they refer to.

Key:
RsTSPO [1] = target: T1, RsTSPO (Cereibacter sphaeroides, UniProt Q9RFC8); assay: binding to purified protein
T1 sequence (Q9RFC8 1-158): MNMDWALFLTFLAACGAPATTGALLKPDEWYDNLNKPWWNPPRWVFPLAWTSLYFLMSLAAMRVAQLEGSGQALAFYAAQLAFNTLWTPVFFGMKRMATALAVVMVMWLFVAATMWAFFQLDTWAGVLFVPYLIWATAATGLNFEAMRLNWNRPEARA

RsTSPO [2] = target: T2, RsTSPO (Cereibacter sphaeroides, UniProt Q9RFC8, A136L/A138F/T137A); assay: binding to purified protein
T2 sequence (Q9RFC8 1-158 A136L/T137A/A138F): T1 sequence (Q9RFC8 1-158) with A136L, T137A, A138F

RsTSPO [3] = target: T2, RsTSPO; assay: fluorescence quenching; format: binding
RsTSPO [4] = target: T1, RsTSPO; assay: fluorescence quenching; format: binding; conditions: affinity value, symbol not given
RsTSPO [5] = target: T1, RsTSPO; assay: binding to purified protein; conditions: affinity value, symbol not given
RsTSPO [6] = target: T2, RsTSPO; assay: binding to purified protein; remark: listed apart in the source

CC(C)CCC[C@@H](C)[C@H]1CC[C@H]2[C@@H]3CC=C4C[C@@H](O)CC[C@]4(C)[C@H]3CC[C@]12C [cholesterol]
Kd (RsTSPO [1]): ~80 µM
Kd (RsTSPO [2]): ~0.02 µM

CCC(C)N(C)C(=O)c1cc2ccccc2c(-c2ccccc2Cl)n1 (stereo not drawn) [PK11195]
Kd (RsTSPO [3]): 15 ± 4 µM
Kd (RsTSPO [4]): 10 ± 1 µM

C=CC1=C(C)c2cc3[nH]c(cc4nc(cc5[nH]c(cc1n2)c(C)c5CCC(=O)O)C(CCC(=O)O)=C4C)c(C)c3C=C [protoporphyrin IX]
Kd (RsTSPO [5]): 0.31 ± 0.01 µM
Kd (RsTSPO [6]): 1.1 ± 0.1 µM
